In general, IC50 refers to the concentration that inhibits the measured activity by half. Low values mean greater potency in that assay, high ones weaker potency in that assay.

For the assay, the target named is T1, hTRPV3 (Homo sapiens, UniProt Q8NET8).
T1 construct: The commercially available plasmid with the full-length cDNA of hTRPV3 (791 aa) (NM_001258205.2); host or cells: HEK293T
T1 sequence (Q8NET8 1-791 isoform Q8NET8-2): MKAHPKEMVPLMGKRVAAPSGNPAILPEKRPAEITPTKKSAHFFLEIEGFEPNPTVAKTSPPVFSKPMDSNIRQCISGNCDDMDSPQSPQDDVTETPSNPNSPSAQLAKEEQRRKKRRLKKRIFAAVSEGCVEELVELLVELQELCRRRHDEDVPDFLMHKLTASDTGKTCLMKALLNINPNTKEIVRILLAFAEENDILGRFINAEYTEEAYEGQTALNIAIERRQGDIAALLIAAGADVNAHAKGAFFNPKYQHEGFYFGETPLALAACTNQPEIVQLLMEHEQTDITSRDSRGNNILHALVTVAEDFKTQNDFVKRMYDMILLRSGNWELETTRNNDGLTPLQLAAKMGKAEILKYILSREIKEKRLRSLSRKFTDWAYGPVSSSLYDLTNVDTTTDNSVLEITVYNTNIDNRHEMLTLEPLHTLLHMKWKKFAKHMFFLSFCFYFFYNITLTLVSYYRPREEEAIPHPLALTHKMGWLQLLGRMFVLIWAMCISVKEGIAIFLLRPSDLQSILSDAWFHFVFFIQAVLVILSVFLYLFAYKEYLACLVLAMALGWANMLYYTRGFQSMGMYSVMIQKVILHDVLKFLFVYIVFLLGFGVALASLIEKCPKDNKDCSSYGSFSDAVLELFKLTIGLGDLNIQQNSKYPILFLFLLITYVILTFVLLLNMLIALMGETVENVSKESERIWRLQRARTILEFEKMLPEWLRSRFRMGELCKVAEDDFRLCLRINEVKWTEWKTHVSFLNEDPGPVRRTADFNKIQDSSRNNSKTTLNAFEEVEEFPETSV
Description: Whole-cell patch-clamp recording of hTRPV3 current in transfected HEK293T cells (2-APB induced). The class given is cell-based. The following applies: current induced by 300 μM 2-APB, compounds tested up to 10 μM, room temperature. As for the experimental part:
Various technologies can be utilized to assess TRPV3 activation in accordance with the present disclosure. For example, in some embodiments, compounds are assessed in in vitro patch clamp experiments. Certain useful procedures are described herein as examples.
In some embodiments, whole-cell patch-clamp recordings were used to detect the current through hTRPV3 channels in the HEK293T cell line transfected with hTRPV3 cDNA and evaluate the exact blocking effect of compounds on hTRPV3. In some embodiments, a perfusion system was adopted to control the extracellular solution, including the addition of the agonist and different antagonists.
HEK293T cells were cultured in a Dulbecco's modified Eagle's medium containing 10% fetal bovine serum (Thermo Scientific) and 1% penicillin/streptomycin (Thermo Scientific) at 37° C. with 5% CO2. The commercially available plasmid with the full-length cDNA of hTRPV3 (791 aa) (NM_001258205.2) was purchased from OriGene Technologies. The transfection of hTRPV3 plasmids was conducted using Lipofectamine™ 3000 following the manufacturer's instructions (Invitrogen).
Whole-cell patch-clamp experiments were performed 18 h post-transfection, using a MultiClamp 700B amplifier driven by pClamp 11 software (Molecular Devices). In order to achieve good single-cell physical separation, HEK293T cells with hTRPV3 expression were digested and then re-plated at low density on glass coverslips. Electrodes were pulled from borosilicate glass with a P-97 micropipette puller (Sutter Instruments) and those with resistances of 3-5 MΩ are used for experiments. In some embodiments, an Ag—AgCl wire was used as a reference electrode and signals are filtered using a 2.9 kHz low-pass Bessel filter. Membrane potential was held at 0 mV. For recording of agonist-induced activation and inhibition by different test compounds, currents were elicited by a protocol consisting of a 400-ms step to +80 mV, followed by a 400-ms step to −80 mV at 2-s intervals. both pipette and bath solutions contained 130 mM NaCl, 0.3 mM EDTA, and 3 mM HEPES (buffered to pH 7.4 with NaOH). All recordings were made at room temperature.
All patch-clamp recordings were analyzed using the Clampfit software and GraphPad Prism 6.0 software. Specifically, data are analyzed by calculating the degree of current amplitude after the test compound addition compared with the unblocked agonist-induced current amplitude. The resulting blocking percentage at each concentration was used to make a concentration-response analysis and fitted to the Hill equation: blocking percentage=minimum blocking percentage+ (maximum blocking percentage-minimum blocking percentage)/(1+10^(Hill slope* […])). The minimum blocking percentage is 0% and maximum blocking percentage is 100%, while the Hill slope and the IC50 were determined as the curve fitting routine. Compounds of interest were tested against hTRPV3 at concentrations up to 10 μM, and certain data was used to estimate IC50 as described herein.
On the technique in general: In patch-clamp work, channel activity is measured electrically.
In the case of `COc1ncnc(OC)c1C(=O)Nc1nc2c(s1)C1(CCNCC1)Oc1cc(C(F)(F)F)ccc1-2` [compound 45, 4,6-dimethoxy-N-(7-(trifluoromethyl)spiro[chromeno[4,3-d]thiazole-4,4′-piperidin]-2-yl)pyrimidine-5-carboxamide], the 50% inhibitory concentration (IC50) is at least 10 µM.

Molecule `COc1ncnc(OC)c1C(=O)Nc1nc2c(s1)C1(CCN(C)CC1)Oc1cc(C(F)(F)F)ccc1-2` [compound 46, 4,6-dimethoxy-N-(1′-methyl-7-(trifluoromethyl)spiro[chromeno[4,3-d]thiazole-4,4′-piperidin]-2-yl)pyrimidine-5-carboxamide] yielded an IC50 of 1 to 10 µM. `CCOc1ncnc(OCC)c1C(=O)Nc1nc2c(s1)C(CC)(CC)Oc1cc(C(F)(F)F)ccc1-2` [compound 47, N-(4,4-diethyl-7-(trifluoromethyl)-4H-chromeno[4,3-d]thiazol-2-yl)-4,6-diethoxypyrimidine-5-carboxamide]: the half-maximal inhibitory concentration (IC50) was in the range of 0.1 to 1 µM. `CCC1(CC)Oc2cc(C(F)(F)F)ccc2-c2nc(NC(=O)c3c(OCC(F)(F)F)ncnc3OCC(F)(F)F)sc21` [compound 48, N-(4,4-diethyl-7-(trifluoromethyl)-4H-chromeno[4,3-d]thiazol-2-yl)-4,6-bis(2,2,2-trifluoroethoxy)pyrimidine-5-carboxamide]: the half-inhibitory concentration (IC50) was at least 10 µM.

As to `CCC1(CC)Oc2cc(Br)ccc2-c2nc(NC(=O)c3c(OC)ncnc3OC)sc21` [compound 49, N-(7-bromo-4,4-diethyl-4H-chromeno[4,3-d]thiazol-2-yl)-4,6-dimethoxypyrimidine-5-carboxamide], the half-maximal inhibitory concentration (IC50) is 1 to 10 µM. Molecule `CCC1(CC)Oc2cc(C#N)ccc2-c2nc(NC(=O)c3c(OC)ncnc3OC)sc21` [compound 50, N-(7-cyano-4,4-diethyl-4H-chromeno[4,3-d]thiazol-2-yl)-4,6-dimethoxypyrimidine-5-carboxamide] gave an IC50 of 0.1 to 1 µM. Molecule `CCC1(CC)Oc2cc3c(cc2-c2nc(NC(=O)c4c(OC)ncnc4OC)sc21)OCO3` [compound 51, N-(4,4-diethyl-4H-[1,3]dioxolo[4′,5′: 6,7]chromeno[4,3-d]thiazol-2-yl)-4,6-dimethoxypyrimidine-5-carboxamide] came in with an IC50 of at least 10 µM. With `CCC1(CC)Oc2cc(C(F)(F)F)ccc2-c2nc(NC(=O)c3c(C)ncnc3C)sc21` [compound 52, N-(4,4-diethyl-7-(trifluoromethyl)-4H-chromeno[4,3-d]thiazol-2-yl)-4,6-dimethylpyrimidine-5-carboxamide], the half-inhibitory concentration (IC50) was in the range of 1 to 10 µM.

Regarding `CCC1(CC)Oc2cc(C(F)(F)F)ccc2-c2nc(N(C)C(=O)c3c(OC)ncnc3OC)sc21` [compound 53], the IC50 is at least 10 µM. In turn, `CCC1(CC)Oc2cc(C3CC3)ccc2-c2nc(NC(=O)c3c(OC)ncnc3OC)sc21` [compound 54, N-(7-cyclopropyl-4,4-diethyl-4H-chromeno[4,3-d]thiazol-2-yl)-4,6-dimethoxypyrimidine-5-carboxamide] displayed an IC50 of 0.1 to 1 µM. In turn, `C=C(C)c1ccc2c(c1)OC(CC)(CC)c1sc(NC(=O)c3c(OC)ncnc3OC)nc1-2` [compound 55, N-(4,4-diethyl-7-(prop-1-en-2-yl)-4H-chromeno[4,3-d]thiazol-2-yl)-4,6-dimethoxypyrimidine-5-carboxamide] had a half-inhibitory concentration (IC50) of 0.1 to 1 µM. Next, `CCC1(CC)Oc2cc(C(F)(F)F)ccc2-c2nc(NS(=O)(=O)c3c(OC)ncnc3OC)sc21` [compound 56]: at least 10 µM; `CCC1(CC)Oc2cc(C(F)(F)F)ccc2-c2nc(NC(=O)c3c(C)ncnc3OC)sc21` [compound 57, N-(4,4-diethyl-7-(trifluoromethyl)-4H-chromeno[4,3-d]thiazol-2-yl)-4-methoxy-6-methylpyrimidine-5-carboxamide]: 0.1 to 1 µM. `CCC1(CC)Oc2cc(N3CCOCC3)ccc2-c2nc(NC(=O)c3c(OC)ncnc3OC)sc21` [compound 58, N-(4,4-diethyl-7-morpholino-4H-chromeno[4,3-d]thiazol-2-yl)-4,6-dimethoxypyrimidine-5-carboxamide] gave an IC50 of 1 to 10 µM. `COc1ncnc(OC)c1C(=O)Nc1nc2c(s1)C1(CCOCC1)Oc1cc(C(F)(F)F)ccc1-2` [compound 59, 4,6-dimethoxy-N-(7-(trifluoromethyl)-2′,3′,5′,6′-tetrahydrospiro[chromeno[4,3-d]thiazole-4,4′-pyran]-2-yl)pyrimidine-5-carboxamide] registered an IC50 of 0.1 to 1 µM. Turning to `CCC1(CC)Oc2nc(C(F)(F)F)ccc2-c2nc(NC(=O)c3c(OC)ncnc3OC)sc21` [compound 60, N-(4,4-diethyl-7-(trifluoromethyl)-4H-thiazolo[4′,5′: 4,5]pyrano[2,3-b]pyridin-2-yl)-4,6-dimethoxypyrimidine-5-carboxamide], the IC50 lay in the range of 0.1 to 1 µM.

Regarding `CCC1(CC)Oc2cc(C(C)(C)O)ccc2-c2nc(NC(=O)c3c(OC)ncnc3OC)sc21` [compound 61, N-(4,4-diethyl-7-(2-hydroxypropan-2-yl)-4H-chromeno[4,3-d]thiazol-2-yl)-4,6-dimethoxypyrimidine-5-carboxamide], the IC50 fell in the range of 1 to 10 µM. On to `CCOC(=O)c1ccc2c(c1)OC(CC)(CC)c1sc(NC(=O)c3c(OC)ncnc3OC)nc1-2` [compound 62, ethyl 2-(4,6-dimethoxypyrimidine-5-carboxamido)-4,4-diethyl-4H-chromeno[4,3-d]thiazole-7-carboxylate], for which the IC50 is 1 to 10 µM. For `COc1ncnc(OC)c1C(=O)Nc1nc2c(s1)C1(CN(C(=O)OC(C)(C)C)C1)Oc1cc(C(F)(F)F)ccc1-2` [compound 63, tert-butyl 2′-(4,6-dimethoxypyrimidine-5-carboxamido)-7′-(trifluoromethyl)spiro[azetidine-3,4′-chromeno[4,3-d]thiazole]-1-carboxylate], the IC50 is under 0.1 µM. With `COc1ncnc(OC)c1C(=O)Nc1nc2c(s1)C1(CCN(C(C)=O)CC1)Oc1cc(C(F)(F)F)ccc1-2` [compound 64, N-(1′-acetyl-7-(trifluoromethyl)spiro[chromeno[4,3-d]thiazole-4,4′-piperidin]-2-yl)-4,6-dimethoxypyrimidine-5-carboxamide] the figure was 0.1 to 1 µM; with `COc1ncnc(OC)c1C(=O)Nc1nc2c(s1)C1(COC1)Oc1cc(C(F)(F)F)ccc1-2` [compound 65, 4,6-dimethoxy-N-(7-(trifluoromethyl)spiro[chromeno[4,3-d]thiazole-4,3′-oxetan]-2-yl)pyrimidine-5-carboxamide], 0.1 to 1 µM. As to `COCC1(COC)Oc2cc(C(F)(F)F)ccc2-c2nc(NC(=O)c3c(OC)ncnc3OC)sc21` [compound 66, N-(4,4-bis(methoxymethyl)-7-(trifluoromethyl)-4H-chromeno[4,3-d]thiazol-2-yl)-4,6-dimethoxypyrimidine-5-carboxamide], the IC50 lay within 0.1 to 1 µM. The molecule `COc1ncnc(OC)c1C(=O)Nc1nc2c(s1)C1(CNC1)Oc1cc(C(F)(F)F)ccc1-2` [compound 67, 4,6-dimethoxy-N-(7′-(trifluoromethyl)spiro[azetidine-3,4′-chromeno[4,3-d]thiazol]-2′-yl)pyrimidine-5-carboxamide] returned an IC50 of at least 10 µM.

These data come from patent US20260217697A1, “COMPOUNDS COMPRISING HETEROARYL RINGS AND COMPOSITIONS AND METHODS THEREOF” (lonGen Therapeutics Co., Ltd., priority 2022, published 2026).
